From BigSolDB 2.1

O=c1c(-c2ccc(O)cc2)coc2cc(O[C@@H]3O[C@H](CO)[C@@H](O)[C@H](O)[C@H]3O)cc(O)c12
solubility (mole fraction)
Details	283.2 K	293.2 K	303.2 K	313.2 K	323.2 K
in THF	8.67e-05	0.000101	0.000123	0.000149	0.000186
in acetone	0.000354	0.000361	0.000369	0.000382	0.000388
in acetonitrile	1.15e-06	1.61e-06	2.15e-06	2.62e-06	3.12e-06
in chloroform	2.86e-07	3.37e-07	4.14e-07	5.02e-07	6.54e-07
in cyclohexane	2.66e-07	4.59e-07	6.56e-07	9.11e-07	1.25e-06
in ethanol	2.63e-05	2.85e-05	3.28e-05	3.72e-05	4.38e-05
in ethyl acetate	1.17e-06	1.52e-06	1.99e-06	2.55e-06	3.25e-06
in isopropanol	7.95e-06	1.05e-05	1.34e-05	1.71e-05	2.2e-05
in methanol	5e-05	5.54e-05	5.91e-05	6.44e-05	7.04e-05
in n-butanol	4.78e-06	8.48e-06	1.25e-05	1.56e-05	1.91e-05
in n-hexane	3.64e-07	4.87e-07	6.47e-07	8.58e-07	1.14e-06
